# Measurements from paper PMC3878488, “Biarsenical ligands bind to endogenous G-protein α-subunits and enable allosteric sensing of nucleotide binding” (BMC Biochemistry, 2013).
# Tests used:
# Test in all cases: F2FlAsH fluorescence anisotropy, nucleotide titration
# Format in all cases: binding
# αi3βγM (F2FlAsH-labeled) = system: T1, αi3βγM (F2FlAsH-labeled); conditions: pH 7.8, 28°C, 2 mM MgCl2, 1 mM EDTA, 2 h; 5 nM F2FlAsH allosteric label, ~40 nM nucleotide-depleted heterotrimer
# T1 construct: gene GNAI3; wild-type alpha co-expressed in Sf9 with beta1 / StrepII- and CCKACC-tagged gamma2; nucleotide-depleted heterotrimer
# Source text: F2FlAsH fluorescence anisotropy, nucleotide titration on αi3βγM (F2FlAsH-labeled)
# αi1βγM (F2FlAsH-labeled) = system: T2, αi1βγM (F2FlAsH-labeled); conditions: pH 7.8, 28°C, 2 mM MgCl2, 1 mM EDTA, 2 h; 5 nM F2FlAsH allosteric label, ~40 nM nucleotide-depleted heterotrimer
# T2 construct: gene GNAI1; wild-type alpha co-expressed in Sf9 with beta1 / StrepII- and CCKACC-tagged gamma2; nucleotide-depleted heterotrimer
# Source text: F2FlAsH fluorescence anisotropy, nucleotide titration on αi1βγM (F2FlAsH-labeled)
# αi2βγM (F2FlAsH-labeled) = system: T3, αi2βγM (F2FlAsH-labeled); conditions: pH 7.8, 28°C, 2 mM MgCl2, 1 mM EDTA, 2 h; 5 nM F2FlAsH allosteric label, ~40 nM nucleotide-depleted heterotrimer
# T3 construct: gene GNAI2; wild-type alpha co-expressed in Sf9 with beta1 / StrepII- and CCKACC-tagged gamma2; nucleotide-depleted heterotrimer
# Source text: F2FlAsH fluorescence anisotropy, nucleotide titration on αi2βγM (F2FlAsH-labeled)
# [1] = system: T4, αq + βγM (F2FlAsH-labeled); conditions: pH 7.8, 28°C, 2 mM MgCl2, 1 mM EDTA, 6 h; 15 nM F2FlAsH allosteric label
# T4 construct: gene GNAQ; wild-type alpha (Kerafast, purified by GST-Ric8 association), reconstituted with beta1 / StrepII- and CCKACC-tagged gamma2 from Sf9
# Source text: F2FlAsH fluorescence anisotropy, nucleotide titration on αq + βγM (F2FlAsH-labeled)
# [2] = system: T5, α13 + βγM (F2FlAsH-labeled); conditions: pH 7.8, 28°C, 2 mM MgCl2, 1 mM EDTA, 14 h; 15 nM F2FlAsH allosteric label
# T5 construct: gene GNA13; wild-type alpha (Kerafast, purified by GST-Ric8 association), reconstituted with beta1 / StrepII- and CCKACC-tagged gamma2 from Sf9
# Source text: F2FlAsH fluorescence anisotropy, nucleotide titration on α13 + βγM (F2FlAsH-labeled)
# [3] = system: T6, αsshort + βγM (F2FlAsH-labeled); conditions: pH 7.8, 28°C, 2 mM MgCl2, 1 mM EDTA, 6 h; 15 nM F2FlAsH allosteric label
# T6 construct: gene GNAS; wild-type alpha (Kerafast, purified by GST-Ric8 association), reconstituted with beta1 / StrepII- and CCKACC-tagged gamma2 from Sf9
# Source text: F2FlAsH fluorescence anisotropy, nucleotide titration on αsshort + βγM (F2FlAsH-labeled)
# [4] = system: T7, αolf + βγM (F2FlAsH-labeled); conditions: pH 7.8, 28°C, 2 mM MgCl2, 1 mM EDTA, 6 h; 15 nM F2FlAsH allosteric label
# T7 construct: gene GNAL; wild-type alpha (Kerafast, purified by GST-Ric8 association), reconstituted with beta1 / StrepII- and CCKACC-tagged gamma2 from Sf9
# Source text: F2FlAsH fluorescence anisotropy, nucleotide titration on αolf + βγM (F2FlAsH-labeled)
# [5] = system: T8, αslong + βγM (F2FlAsH-labeled); conditions: pH 7.8, 28°C, 2 mM MgCl2, 1 mM EDTA, 6 h; 15 nM F2FlAsH allosteric label
# T8 construct: gene GNAS; wild-type alpha (Kerafast, purified by GST-Ric8 association), reconstituted with beta1 / StrepII- and CCKACC-tagged gamma2 from Sf9
# Source text: F2FlAsH fluorescence anisotropy, nucleotide titration on αslong + βγM (F2FlAsH-labeled)
smiles,measurement,setting,value
Nc1nc2c(ncn2[C@@H]2O[C@H](COP(=O)(O)OP(=O)(O)NP(=O)(O)O)[C@@H](O)[C@H]2O)c(=O)[nH]1 [GppNHp],GppNHp,αi3βγM (F2FlAsH-labeled),7.93 ± 0.07 -log M
same,GppNHp,αi1βγM (F2FlAsH-labeled),8.08 ± 0.04 -log M
same,GppNHp,αi2βγM (F2FlAsH-labeled),7.84 ± 0.14 -log M
same,GppNHp,[1],5.96 ± 0.07 -log M
same,GppNHp,[2],5.36 ± 0.14 -log M
same,GppNHp,[3],6.42 ± 0.04 -log M
same,GppNHp,[4],5.84 ± 0.05 -log M
same,GppNHp,[5],6.56 ± 0.07 -log M
Nc1nc2c(ncn2[C@@H]2O[C@H](COP(=O)(O)O)[C@@H](O)[C@H]2O)c(=O)[nH]1 [GMP],GMP,αi3βγM (F2FlAsH-labeled),5.29 ± 0.13 -log M
same,GMP,αi1βγM (F2FlAsH-labeled),5.89 ± 0.12 -log M
same,GMP,αi2βγM (F2FlAsH-labeled),4.45 ± 0.07 -log M
same,GMP,[1],< 3 -log M
same,GMP,[3],< 3 -log M
same,GMP,[4],< 3 -log M
Nc1nc2c(ncn2[C@@H]2O[C@H](COP(=O)(O)OP(=O)(O)OP(O)(O)=S)[C@@H](O)[C@H]2O)c(=O)[nH]1 [GTPγS],GTPγS,αi3βγM (F2FlAsH-labeled),7.87 ± 0.06 -log M
same,GTPγS,αi2βγM (F2FlAsH-labeled),8.02 ± 0.09 -log M
same,GTPγS,[1],6.27 ± 0.05 -log M
same,GTPγS,[2],5.65 ± 0.13 -log M
same,GTPγS,[3],7.06 ± 0.04 -log M
same,GTPγS,[4],6.43 ± 0.04 -log M
same,GTPγS,[5],7.47 ± 0.09 -log M
Nc1nc2c(ncn2[C@@H]2O[C@H](COP(=O)(O)OP(=O)(O)O)[C@@H](O)[C@H]2O)c(=O)[nH]1 [GDP],GDP,αi3βγM (F2FlAsH-labeled),8.08 ± 0.10 -log M
same,GDP,αi1βγM (F2FlAsH-labeled),8.19 ± 0.16 -log M
same,GDP,αi2βγM (F2FlAsH-labeled),8.17 ± 0.13 -log M
same,GDP,[1],5.87 ± 0.06 -log M
same,GDP,[2],4.98 ± 0.23 -log M
same,GDP,[3],4.85 ± 0.05 -log M
same,GDP,[4],5.00 ± 0.03 -log M
same,GDP,[5],4.72 ± 0.18 -log M
